According to publication PMC9510750, “Design, synthesis and biological evaluation of novel O-substituted tryptanthrin oxime derivatives as c-Jun N-terminal kinase inhibitors” (Frontiers in Pharmacology, 2022):
Like-named read-outs stand apart in the source and are kept apart here.

Experiments:
JNK2 = molecular target: T1, JNK2 (Homo sapiens, UniProt P45984); experiment: KINOMEscan ATP site-dependent binding assay, JNK2; conditions: mixture of E/Z isomers, read-out: Binding affinity JNK2 Kd
T1 construct: purchased Eurofins Pharma Discovery (KINOMEscan platform)
T1 sequence (P45984 whole entry): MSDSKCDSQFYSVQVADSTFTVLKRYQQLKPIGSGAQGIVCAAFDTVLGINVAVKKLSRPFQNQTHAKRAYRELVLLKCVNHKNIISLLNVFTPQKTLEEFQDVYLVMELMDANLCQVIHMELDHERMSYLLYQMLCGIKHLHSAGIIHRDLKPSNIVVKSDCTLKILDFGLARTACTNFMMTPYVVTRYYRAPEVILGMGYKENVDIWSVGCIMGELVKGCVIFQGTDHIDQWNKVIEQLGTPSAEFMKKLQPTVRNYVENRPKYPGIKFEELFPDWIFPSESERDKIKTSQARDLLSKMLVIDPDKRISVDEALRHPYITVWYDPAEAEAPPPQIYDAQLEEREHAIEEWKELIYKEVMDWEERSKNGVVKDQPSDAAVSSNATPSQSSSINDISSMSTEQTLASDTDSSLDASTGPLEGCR
Method: (§1) Selected compounds were submitted for dissociation constant (Kd) determination using the KINOMEscan platform (Eurofins Pharma Discovery, San Diego, CA, United States), as described previously ([Karaman et al., 2008]). […] Primary screening at fixed concentrations of compounds was performed in duplicate.

JNK1 = molecular target: T2, JNK1 (Homo sapiens, UniProt P45983); experiment: KINOMEscan ATP site-dependent binding assay, JNK1; conditions: mixture of E/Z isomers, read-out: Binding affinity JNK1 Kd
T2 construct: purchased Eurofins Pharma Discovery (KINOMEscan platform)
T2 sequence (P45983 whole entry): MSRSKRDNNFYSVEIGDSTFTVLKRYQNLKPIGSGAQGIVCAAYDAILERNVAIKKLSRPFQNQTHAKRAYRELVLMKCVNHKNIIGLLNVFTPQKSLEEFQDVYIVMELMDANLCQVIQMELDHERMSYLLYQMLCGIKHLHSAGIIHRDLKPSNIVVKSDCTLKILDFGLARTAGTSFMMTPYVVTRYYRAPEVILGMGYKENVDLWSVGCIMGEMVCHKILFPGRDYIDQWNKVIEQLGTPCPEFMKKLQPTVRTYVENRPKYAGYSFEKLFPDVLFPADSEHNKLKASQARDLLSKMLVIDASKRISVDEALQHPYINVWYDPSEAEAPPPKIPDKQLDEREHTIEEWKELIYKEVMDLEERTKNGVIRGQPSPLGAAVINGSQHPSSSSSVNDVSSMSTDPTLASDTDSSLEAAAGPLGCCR
Method: as §1

[1] = test system: IL-6 production in MonoMac-6 cells; experiment: LPS-induced IL-6 production in MonoMac-6 cells (ELISA); type: cell-based; conditions: Homo sapiens, MONO-MAC-6; LPS 250 ng/ml, 24 h
Method: (§2) All cells were cultured at 37°C in a humidified atmosphere containing 5% CO2. THP-1Blue cells obtained from InvivoGen (San Diego, CA, United States) were cultured in RPMI 1640 medium (Mediatech Inc., Herndon, VA, United States) supplemented with 10% (v/v) fetal bovine serum (FBS), 4.5 g/L glucose, 100 μg/ml streptomycin, 100 U/mL penicillin, 100 μg/ml phleomycin (Zeocin), and 10 μg/ml blasticidin S. Human monocyte-macrophage MonoMac-6 cells (Deutsche Sammlung von Mikroorganismen und Zellkulturen GmbH, Braunschweig, Germany) were grown in RPMI 1640 medium supplemented with 10% (v/v) FBS, 10 μg/ml bovine insulin, 100 μg/ml streptomycin, and 100 U/mL penicillin.
(§3) Human IL-6 ELISA kit (BD Biosciences, San Jose, CA, United States) was used to confirm the inhibitory effect of selected compounds on IL-6 production. MonoMac-6 cells were plated in 96-well plates at a density of 2 × 10^5 cells/well in culture medium supplemented with 3% (v/v) endotoxin-free FBS. Cells were pretreated with test compound or DMSO (1% final concentration) for 30 min, followed by addition of 250 ng/ml LPS for 24 h. IC50 values for IL-6 production were calculated by plotting the percentage inhibition against the logarithm of inhibitor concentration (at least five points). Multiplex human cytokine ELISA kit from Anogen (Mississauga, ON, Canada) was used to evaluate various cytokines (IL-1α, IL-1β, IL-6, GM-CSF, MCP-1, IFNγ, and TNF) in the supernatants of MonoMac-6 cells.

JNK3 = molecular target: T3, JNK3 (Homo sapiens, UniProt P53779); experiment: KINOMEscan ATP site-dependent binding assay, JNK3; conditions: for Kd: KINOMEscan, mixture of E/Z isomers, read-out: Binding affinity JNK3 Kd
T3 construct: purchased Eurofins Pharma Discovery (KINOMEscan platform)
T3 sequence (P53779 whole entry): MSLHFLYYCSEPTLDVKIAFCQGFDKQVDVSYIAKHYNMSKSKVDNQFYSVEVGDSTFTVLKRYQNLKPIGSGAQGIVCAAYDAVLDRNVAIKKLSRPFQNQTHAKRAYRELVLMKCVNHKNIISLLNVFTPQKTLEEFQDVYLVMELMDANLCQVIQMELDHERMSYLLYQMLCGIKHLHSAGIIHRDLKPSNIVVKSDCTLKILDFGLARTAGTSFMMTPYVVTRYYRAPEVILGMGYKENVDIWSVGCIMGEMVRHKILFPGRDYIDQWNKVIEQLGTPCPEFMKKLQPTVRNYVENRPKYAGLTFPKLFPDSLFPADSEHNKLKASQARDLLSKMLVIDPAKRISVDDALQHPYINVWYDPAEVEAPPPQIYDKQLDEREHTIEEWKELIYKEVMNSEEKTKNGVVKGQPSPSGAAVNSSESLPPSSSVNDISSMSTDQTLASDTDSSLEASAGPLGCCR
Method: as §1

[2] = test system: NF-κB/AP-1 transcriptional activity in THP-1Blue cells; experiment: LPS-induced NF-κB/AP-1 alkaline phosphatase reporter assay in THP-1Blue cells; type: cell-based; conditions: Homo sapiens; LPS 250 ng/ml, 24 h
Method: as §2
Activation of AP-1/NF-κB was measured using an alkaline phosphatase reporter gene assay in THP1-Blue cells. Human monocytic THP-1Blue cells are stably transfected with a secreted embryonic alkaline phosphatase gene that is under the control of a promoter inducible by AP-1/NF-κB. THP-1Blue cells (2 × 10^5 cells/well) were pretreated with test compound or DMSO (1% final concentration) for 30 min, followed by addition of 250 ng/ml LPS (from Escherichia coli K-235; Sigma Chemical Co., St. Louis, MO, United States) for 24 h, and alkaline phosphatase activity was measured in cell supernatants using QUANTI-Blue mix (InvivoGen) with absorbance at 655 nm and compared with positive control samples (LPS). The concentrations of compound that caused 50% inhibition of the AP-1/NF-κB reporter activity (IC50) were calculated.

[3] = Solubility in DMSO for the binding affinity assay; type: physicochemical; conditions: insufficiently soluble in DMSO for the binding affinity assay
Description: TABLE 1 Binding affinity (Kd) of compounds 1a-o and their inhibitory effect on LPS-induced NF-κB/AP-1 transcriptional activity in THP-1Blue cells and IL-6 production in MonoMac-6 cells. | column: Binding affinity / JNK1

[4] = test system: proinflammatory cytokine production in MonoMac-6 cells; experiment: Multiplex human cytokine ELISA, LPS-stimulated MonoMac-6 cells; type: cell-based; conditions: 10 μM, LPS 250 ng/ml 24 h
Method: as §3

[5] = test system: c-Jun (Ser63) phosphorylation in MonoMac-6 cells; experiment: LPS-induced c-Jun (Ser63) phosphorylation, Western blotting; type: cell-based, human; conditions: 30 min pretreatment, LPS 250 ng/ml 30 min, phospho-c-Jun/total c-Jun
Method: MonoMac-6 monocytic cells (10^7 cells) were incubated with different concentrations of compound 1j (final DMSO concentration of 0.5%) for 30 min at 37°C and then treated with LPS (250 ng/ml) or buffer for another 30 min at 37°C. Cells were washed twice with ice-cold phosphate buffer solution (pH 7.4), and cell lysates were prepared using lysis buffer (Cell Signaling Technology, Danvers, MA, United States). Cell lysates were separated on ExpressPlus 10% PAGE Gels (GenScript, Piscataway, NJ, United States) using TRIS-MOPS running buffer and transferred to nitrocellulose membranes. The blots were blocked overnight at 4°C in TRIS buffer (pH 7.4) + 0.1% Tween-20 (TBST) + 2.5% bovine serum albumin and probed with antibodies against phospho-c-Jun (Ser63) (Cell Signaling Technology), followed by horseradish peroxidase-conjugated secondary antibody (Cell Signaling Technology), and the blots were developed using Super-Signal West Femto chemiluminescent substrate (Thermo Fisher Scientific) and visualized with a FluorChem FC2 imaging system (Alpha Innotech Corporation, San Leandro, CA, United States). For measurement of total c-Jun signal, we stripped and reprobed the same Western blots that were used for phospho-c-Jun blots. […] Quantitation of the luminescent signals were performed using AlphaView software.

[6] = test system: IL-6 production in MonoMac-6 cells; design: method as in Schepetkin et al., 2019; conditions: LPS-stimulated; ref Schepetkin et al., 2019; cited from earlier work
[7] = test system: NF-κB/AP-1 transcriptional activity in THP-1Blue cells; design: method as in Schepetkin et al., 2019; conditions: LPS-stimulated; ref Schepetkin et al., 2019; cited from earlier work

| melting point | Kd (JNK2) [µM] | Kd (JNK1) [µM] | IC50 [1] [µM] | Kd (JNK3) [µM] | IC50 [2] [µM] | Compound | also measured |
| --- | --- | --- | --- | --- | --- | --- | --- |
| 117 °C | 5.4 ± 0.6 | 3.2 ± 1.2 | ≥ 50 | 1.2 ± 0.4 | ≥ 50 | CCON=C1c2ccccc2-n2c1nc1ccccc1c2=O [Compound 1b, 6-(ethoxyimino)indolo[2,1-b]quinazolin-12(6H)-one] | – |
| 224 °C | 17.5 ± 2.1 | 19.5 ± 3.5 | ≥ 50 | 1.5 ± 0.6 | ≥ 50 | N#CCON=C1c2ccccc2-n2c1nc1ccccc1c2=O [Compound 1e, 2-(((12-oxoindolo[2,1-b]quinazolin-6(12H)-ylidene)amino)oxy)acetonitrile] | JNK-3 selectivity over JNK-1 (JNK3; ratio of binding affinities): > 10 fold; JNK-3 selectivity over JNK-2 (JNK3; ratio of binding affinities): > 10 fold |
| 206 °C | – | – | ≥ 50 | ≥ 30 | ≥ 50 | O=c1c2ccccc2nc2n1-c1ccccc1C2=NOCc1ccccc1 [Compound 1f, 6-((benzyloxy)imino)indolo[2,1-b]quinazolin-12(6H)-one] | – |
| 199 to 200 °C | 3.9 ± 0.4 | 4 ± 0.9 | ≥ 50 | 1.5 ± 0.1 | ≥ 50 | O=c1c2ccccc2nc2n1-c1ccccc1C2=NOCc1ccccn1 [Compound 1i, 6-((pyridin-2-ylmethoxy)imino)indolo[2,1-b]quinazolin-12(6H)-one] | – |
| 266 °C | – | – | 6.6 ± 1.2 | – | 3.3 ± 0.1 | NC(=O)NN=C1c2ccccc2-n2c1nc1ccccc1c2=O [Compound 1o, 2-(12-oxoindolo[2,1-b]quinazolin-6(12H)-ylidene)hydrazinecarboxamide] | – |

Second part, the compound before the results:

| Compound | melting point | Kd (JNK2) [µM] | Kd (JNK1) [µM] | IC50 [1] [µM] | Kd (JNK3) [µM] | IC50 [2] [µM] | also measured |
| --- | --- | --- | --- | --- | --- | --- | --- |
| CON=C1c2ccccc2-n2c1nc1ccccc1c2=O [Compound 1a, 6-(methoxyimino)indolo[2,1-b]quinazolin-12(6H)-one] | 218 °C | 5.6 ± 0.4 | 3.1 ± 0.8 | 23.5 ± 1.8 | 1.4 ± 0.2 | 20.8 ± 5.3 | – |
| C=CCON=C1c2ccccc2-n2c1nc1ccccc1c2=O [Compound 1c, 6-((allyloxy)imino)indolo[2,1-b]quinazolin-12(6H)-one] | 163 °C | 4.1 ± 0.1 | 3.6 ± 0.7 | ≥ 50 | 0.85 ± 0.01 | 18.9 ± 1.8 | – |
| CC(C)(C)ON=C1c2ccccc2-n2c1nc1ccccc1c2=O [Compound 1d, 6-(tert-butoxyimino)indolo[2,1-b]quinazolin-12(6H)-one] | 229 °C | 12 ± 1.4 | 9.3 ± 0.5 | ≥ 50 | 2.3 ± 0.3 | ≥ 50 | – |
| O=c1c2ccccc2nc2n1-c1ccccc1C2=NOCc1c(F)c(F)c(F)c(F)c1F [Compound 1g, 6-(((pentafluorophenyl)methoxy)imino)indolo[2,1-b]quinazolin-12(6H)-one] | 183 °C | – | – | ≥ 50 | ≥ 30 | ≥ 50 | – |
| O=c1c2ccccc2nc2n1-c1ccccc1C2=NOCc1ccc([N+](=O)[O-])cc1 [Compound 1h, 6-(((4-nitrobenzyl)oxy)imino)indolo[2,1-b]quinazolin-12(6H)-one] | 219 °C | – | – | ≥ 50 | – | ≥ 50 | Solubility [3]: Poor solubility ^b |
| CC(=O)ON=C1c2ccccc2-n2c1nc1ccccc1c2=O [Compound 1j, 6-(acetoxyimino)indolo[2,1-b]quinazolin-12(6H)-one] | 262 °C | 0.49 ± 0.01 | 0.34 ± 0.04 | 1.7 ± 0.1 | 0.18 ± 0.04 | 0.8 ± 0.2 | Secretion of GM-CSF ([4]; vs DMSO-treated control): completely inhibited; Secretion of IL-1α ([4]; vs DMSO-treated control): completely inhibited; Secretion of IL-1β ([4]; vs DMSO-treated control): completely inhibited; Secretion of IL-6 ([4]; vs DMSO-treated control): completely inhibited; Secretion of MCP-1 ([4]; vs DMSO-treated control): completely inhibited; Secretion of TNF ([4]; vs DMSO-treated control): completely inhibited; Effect on IFN-γ production ([4]; low production of this cytokine after LPS): inconclusive; Inhibition of LPS-induced c-Jun (S63) phosphorylation [5]: dose-dependent inhibition |
| NN=C1c2ccccc2-n2c1nc1ccccc1c2=O [Compound 1m, 6-hydrazonoindolo[2,1-b]quinazolin-12(6H)-one] | > 400 °C (dec.) | – | – | ≥ 50 | – | ≥ 50 | Solubility [3]: Poor solubility ^b |
| O=c1c2ccccc2nc2n1-c1ccccc1C2=NNc1ccccc1 [Compound 1n, 6-(2-phenylhydrazono)indolo[2,1-b]quinazolin-12(6H)-one] | 223 °C | – | – | ≥ 50 | – | ≥ 50 | Solubility [3]: Poor solubility ^b |
| O=c1c2ccccc2nc2n1-c1ccccc1/C2=N\O [TRYP-Ox] | – | – | – | – | – | – | IC50 [6]: 3.2 ± 1.2 µM; IC50 [7]: 3.8 ± 1.1 µM |
